Experimental data: patent US7682635B2, “Aqueous dispersions of nanometric or micrometric particles for encapsulating chemical compounds” (Centre National de la Recherche Scientifique (C.N.R.S.), priority 2002, dated 2010)

Assay: Encapsulation of benzophenone in particles (ultracentrifugation, spectrophotometry of supernatant at 261 nm)
Assay type: physicochemical
Method: An aqueous solution of polymer P2 as defined in Example 1 (0.44 g/l) was produced, to which benzophenone was added with a molar ratio of benzophenone added: cyclodextrin equal to 1:1. This solution was left under agitation for 24 hours.
A composition of particles was prepared by mixture of 1 ml of the solution thus obtained with 1 ml of a solution of modified dextran DM3 as defined in Example 1 (0.44 g/l).
After mixture, the particles produced were ultracentrifuged (30 minutes at 40000 r.p.m. in a Beckman L7-55 centrifuge). The non-encapsulated benzophenone present in the supernatant was dosaged by spectrophotometry (absorption line at 261 nm).
The experiment was repeated using a molar ratio of benzophenone added: cyclodextrin equal to 1:3 for the solution of polymer P2.
The experiment was also repeated using modified dextran DM4 instead of DM3.
Finally, the experiment was also repeated using a molar ratio of benzophenone added cyclodextrin equal to 1:3 for the solution of polymer P2 and also replacing the modified dextran DM3 by DM4.

O=C(c1ccccc1)c1ccccc1 [benzophenone]
benzophenone initially introduced found in the supernatant (4 cases: P2 with DM3 or DM4, benzophenone:cyclodextrin 1:1 or 1:3, after ultracentrifugation): less than 70% | benzophenone content of particles (molar ratio benzophenone:cyclodextrin 1:1 in the initial solution of P2): 1 % by mass | benzophenone content of particles (molar ratio benzophenone:cyclodextrin 1:3): 3 % by mass
